Several values for one entry are separate records, joined by “and”; a condition that tells them apart may be missing. Equal entries are not always repeated.
Columns and labels:
[1] = target: T1, Rat recombinant α2,3(N)ST (Rattus norvegicus, UniProt Q02734); experiment: Sialyltransferase assay with cloned α2,3(N)ST; format: biochemical; details: Table I; acceptor 7.5 mM; 100% = 29520 CPM (Galβ1,4GlcNAcβ-O—Al)
T1 construct: purchased Calbiochem
T1 sequence (Q02734 29-374 limits assumed): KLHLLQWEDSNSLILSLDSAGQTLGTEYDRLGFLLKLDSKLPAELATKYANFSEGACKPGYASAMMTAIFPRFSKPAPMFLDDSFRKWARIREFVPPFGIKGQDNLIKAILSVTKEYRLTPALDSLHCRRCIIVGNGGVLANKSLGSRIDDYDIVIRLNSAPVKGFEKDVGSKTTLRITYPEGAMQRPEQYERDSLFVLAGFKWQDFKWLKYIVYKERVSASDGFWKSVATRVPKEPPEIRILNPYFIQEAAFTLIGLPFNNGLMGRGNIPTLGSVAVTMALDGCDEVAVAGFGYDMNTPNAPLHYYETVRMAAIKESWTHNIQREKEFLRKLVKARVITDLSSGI
In short: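 Each rat recombinant sialyltransferase incubated 2 h at 37° C in 0.1M NaCacodylate pH6.0 with acceptor (typically 7.5 mM) and CMP-[9-³H]NeuAc (typically 0.2 μci; 20 μci/nmol), in duplicate, acceptor-free blank subtracted. Radiolabelled product separated on Dowex-1-Formate or Sep-Pak C18 and counted by liquid scintillation.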

[2] = target: T2, Rat recombinant α2,6(N)ST (Rattus norvegicus, UniProt P13721); experiment: Sialyltransferase assay with cloned α2,6(N)ST; format: biochemical; details: Table I; acceptor 7.5 mM; 100% = 43500 CPM (Galβ1,4GlcNAcβ-O—Al)
T2 construct: purchased Calbiochem
T2 sequence (P13721 1-403): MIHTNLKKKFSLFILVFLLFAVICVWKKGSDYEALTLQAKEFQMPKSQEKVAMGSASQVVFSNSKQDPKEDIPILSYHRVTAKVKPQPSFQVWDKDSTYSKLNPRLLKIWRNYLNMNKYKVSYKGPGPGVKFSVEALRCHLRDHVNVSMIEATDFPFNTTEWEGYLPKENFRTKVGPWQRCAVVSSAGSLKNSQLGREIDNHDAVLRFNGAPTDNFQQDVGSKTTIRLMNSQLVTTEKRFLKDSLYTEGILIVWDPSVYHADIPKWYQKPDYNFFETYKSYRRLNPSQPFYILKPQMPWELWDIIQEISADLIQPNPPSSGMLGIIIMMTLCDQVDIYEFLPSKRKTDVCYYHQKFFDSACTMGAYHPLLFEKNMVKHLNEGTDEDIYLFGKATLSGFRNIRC

CO[C@H]1[C@H](O[C@H]2[C@H](O)[C@@H](CO)OC(O)[C@@H]2NC(C)=O)O[C@H](CO)[C@H](O)[C@@H]1O (stereo partly shown) [2-O-MeGalβ1,3GlcNAc]
Sialyltransferase activity (%) Cloned α2,3(N)ST [1]: 115.3% | Sialyltransferase activity (%) Cloned α2,6(N)ST [2]: 3.7%

CO[C@H]1[C@H](O[C@H]2[C@H](O)[C@@H](NC(C)=O)C(O)O[C@@H]2CO)O[C@H](CO)[C@H](O)[C@@H]1O (stereo partly shown) [2-O-MeGalβ1,4GlcNAc]
Sialyltransferase activity (%) Cloned α2,3(N)ST [1]: 60.0% | Sialyltransferase activity (%) Cloned α2,6(N)ST [2]: 90.1%

CO[C@H]1O[C@H](CO)[C@H](O)[C@H](O[C@@H]2O[C@H](CO)[C@H](O)[C@H](O[C@@H]3O[C@H](C)[C@H](O)[C@H](O)[C@H]3O)[C@H]2NC(C)=O)[C@H]1O [D-Fucβ1,3GalNAcβ1,3Galα-O-Me]
Sialyltransferase activity (%) Cloned α2,3(N)ST [1]: 3.1% | Sialyltransferase activity (%) Cloned α2,6(N)ST [2]: 2.5%

C=CCO[C@H]1O[C@H](CO)[C@H](O)[C@H](O[C@@H]2O[C@H](CO)[C@H](O)[C@H](O)[C@H]2O)[C@H]1NC(C)=O [Galβ1,3GalNAcα-O—Al]
Sialyltransferase activity (%) Cloned α2,3(N)ST [1]: 24.1% | Sialyltransferase activity (%) Cloned α2,6(N)ST [2]: 0.2%

CO[C@H]1O[C@H](CO)[C@H](O)[C@H](O[C@@H]2O[C@H](CO)[C@H](O)[C@H](O[C@@H]3O[C@H](CO)[C@H](O)[C@H](O)[C@H]3O)[C@H]2NC(C)=O)[C@H]1O [Galβ1,3GalNAcβ1,3Galα-O-Me]
Sialyltransferase activity (%) Cloned α2,3(N)ST [1]: 106.8% and 106.8^20% | Sialyltransferase activity (%) Cloned α2,6(N)ST [2]: 1.1%
